Measurements reported in patent publication US10793568B2, “Hormone receptor modulators for treating metabolic conditions and disorders” (ARDELYX, INC., priority 2016, dated 2020).
Where two headings read alike, the source gives them in different places.

Assays:
[1] = target: ligand binding domain of human FXR (Homo sapiens (Human), UniProt Q96RI1); assay: FXR ligand binding assay (LanthaScreen TR-FRET, SRC2-2 peptide recruitment); conditions: for Emax: read-out: % Efficacy
[2] = target: human Farnesoid X receptor ligand-binding domain/Gal4 DNA binding domain chimera (Homo sapiens (Human), UniProt Q96RI1); assay: Cell-based assay of FXR activation (FXR-UAS-bla HEK 293T beta-lactamase reporter); conditions: cellular FXR beta-lactamase reporter assay; for Emax: HEK-293T, extent of activation relative to GW4064, read-out: % Efficacy; for EC50: FXR-UAS-bla HEK 293T cells, 16 h, pEC50 = -log EC50
Sequence of human Farnesoid X receptor ligand-binding domain/Gal4 DNA binding domain chimera (Q96RI1 262-486, change not shown): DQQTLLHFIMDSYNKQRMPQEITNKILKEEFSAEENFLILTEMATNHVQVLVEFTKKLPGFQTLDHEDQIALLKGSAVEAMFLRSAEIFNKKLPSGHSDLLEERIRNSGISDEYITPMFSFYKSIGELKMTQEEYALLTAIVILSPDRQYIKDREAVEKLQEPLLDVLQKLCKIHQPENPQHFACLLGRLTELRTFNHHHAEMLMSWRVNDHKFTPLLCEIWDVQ
Sequence of human Farnesoid X receptor ligand-binding domain/Gal4 DNA binding domain chimera (P04386 1-147 partner): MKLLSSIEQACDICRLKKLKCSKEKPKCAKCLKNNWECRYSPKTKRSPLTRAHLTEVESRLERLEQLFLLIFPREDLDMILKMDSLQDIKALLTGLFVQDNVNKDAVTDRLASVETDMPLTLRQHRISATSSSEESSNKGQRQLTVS
Outline: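 Readout is cleavage of the CCF4 FRET substrate (409 nm excitation, blue 447 nm signal) by beta-lactamase, expressed under UAS control after a Gal4–human FXR LBD chimera is activated in HEK 293T cells. Compounds were added as 3-fold dilutions for 16 h at 37 °C in 2% charcoal-stripped FBS medium. Curves were fit to a 3-parameter logistic equation to give pEC50, with % activation relative to GW4064.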

[3] = -log EC50, concentration required to produce 50% activation
[4] = extent of activation relative to GW4064

Sequence of ligand binding domain of human FXR (Q96RI1 262-486): as the sequence (Q96RI1 262-486, change not shown) above

Row | SMILES | EC50 [1, 3] [nM] | Emax [1, 4] [%] | Emax [2] [%] | EC50 [2] [nM] | pEC50 [1, 3] | Emax [1] [%]
1 | O=C(O)c1cc(F)c(N2C[C@@H]3C[C@H]2C[C@H]3OCc2c(-c3c(Cl)cccc3Cl)noc2C2CC2)c(F)c1 [Compound I-54, 4-[(1S,4S,5R)-5-{[5-cyclopropyl-3-(2,6-dichlorophenyl)-1,2-oxazol-4-yl]methoxy}-2-azabicyclo[2.2.1]heptan-2-yl]-3,5-difluorobenzoic Acid] | 1.58 | 158 | 101 | 0.316 |  | 
2 | N#Cc1cc(F)c(N2C[C@@H]3C[C@H]2C[C@H]3OCc2c(-c3c(Cl)cccc3Cl)noc2C2CC2)c(F)c1 [Compound I-54a, 4-[(1S,4S,5R)-5-[[5-cyclopropyl-3-(2,6-dichlorophenyl)-1,2-oxazol-4-yl]methoxy]-2-azabicyclo[2.2.1]heptan-2-yl]-3,5-difluorobenzonitrile] |  | 162 | 112 | 31.6 | 7.0 | 
3 | O=C(O)c1ccc(N2C[C@@H]3C[C@H]2C[C@H]3OCc2c(-c3c(Cl)cccc3Cl)noc2C2CC2)nc1 [Compound I-55, 6-[(1S,4S,5R)-5-{[5-cyclopropyl-3-(2,6-dichlorophenyl)-1,2-oxazol-4-yl]methoxy}-2-azabicyclo[2.2.1]heptan-2-yl]pyridine-3-carboxylic Acid] |  | 121 | 104 | 3.16 | 7.9 | 
4 | O=C(O)c1ccc(N2C[C@@H]3C[C@H]2C[C@H]3OCc2c(-c3c(Cl)cccc3Cl)noc2C2(F)CC2)cc1 [Compound I-56, 4-[(1S,4S,5R)-5-{[3-(2,6-dichlorophenyl)-5-(1-fluorocyclopropyl)-1,2-oxazol-4-yl]methoxy}-2-azabicyclo[2.2.1]heptan-2-yl]benzoic Acid] |  | 137 | 125 | 2 | 8.5 | 
5 | O=C(O)c1ccc(N2C[C@@H]3C[C@H]2C[C@H]3OCc2c(-c3c(Cl)cccc3Cl)noc2C2(F)CC2)c(F)c1 [Compound I-57, 4-[(1S,4S,5R)-5-{[3-(2,6-dichlorophenyl)-5-(1-fluorocyclopropyl)-1,2-oxazol-4-yl]methoxy}-2-azabicyclo[2.2.1]heptan-2-yl]-3-fluorobenzoic Acid] |  | 146 | 109 | 1 | 7.9 | 
6 | CS(=O)(=O)NC(=O)c1ccc(N2C[C@@H]3C[C@H]2C[C@H]3OCc2c(-c3c(Cl)cccc3Cl)noc2C2CC2)cc1 [Compound I-58, 4-[(1S,4S,5R)-5-{[5-cyclopropyl-3-(2,6-dichlorophenyl)-1,2-oxazol-4-yl]methoxy}-2-azabicyclo[2.2.1]heptan-2-yl]-N-methanesulfonylbenzamide] |  | 153 | 104 | 0.501 | 8.4 | 
7 | CCCS(=O)(=O)NC(=O)c1ccc(N2C[C@@H]3C[C@H]2C[C@H]3OCc2c(-c3c(Cl)cccc3Cl)noc2C2CC2)cc1 [Compound I-59, 4-[(1S,4S,5R)-5-{[5-cyclopropyl-3-(2,6-dichlorophenyl)-1,2-oxazol-4-yl]methoxy}-2-azabicyclo[2.2.1]heptan-2-yl]-N-(propane-1-sulfonyl)benzamide] |  | 176 | 103 | 0.1 | 8.2 | 
8 | O=C(NS(=O)(=O)C1CC1)c1ccc(N2C[C@@H]3C[C@H]2C[C@H]3OCc2c(-c3c(Cl)cccc3Cl)noc2C2CC2)cc1 [Compound I-60, N-(cyclopropanesulfonyl)-4-[(1S,4S,5R)-5-[[5-cyclopropyl-3-(2,6-dichlorophenyl)-1,2-oxazol-4-yl]methoxy]-2-azabicyclo[2.2.1]heptan-2-yl]benzamide] |  | 170 | 105 | 0.2 | 8.2 | 
9 | CCCS(=O)(=O)NC(=O)c1ccc(N2C[C@@H]3C[C@H]2C[C@H]3OCc2c(-c3c(Cl)cccc3Cl)noc2C2CC2)c(F)c1 [Compound I-61, 4-[(1S,4S,5R)-5-{[5-cyclopropyl-3-(2,6-dichlorophenyl)-1,2-oxazol-4-yl]methoxy}-2-azabicyclo[2.2.1]heptan-2-yl]-3-fluoro-N-(propane-1-sulfonyl)benzamide] |  | 174 | 106 | 0.0631 | 8.7 | 
10 | O=C(NS(=O)(=O)C1CC1)c1ccc(N2C[C@@H]3C[C@H]2C[C@H]3OCc2c(-c3c(Cl)cccc3Cl)noc2C2CC2)c(F)c1 [Compound I-62, N-(cyclopropanesulfonyl)-4-[(1S,4S,5R)-5-{[5-cyclopropyl-3-(2,6-dichlorophenyl)-1,2-oxazol-4-yl]methoxy}-2-azabicyclo[2.2.1]heptan-2-yl]-3-fluorobenzamide] |  | 188 | 112 | 0.158 | 7.9 | 
11 | O=C(O)c1cc(F)c2nc(N3C[C@H]4C[C@@H]3[C@H](OC(=O)c3c(-c5c(Cl)cccc5Cl)noc3C3CC3)C4)sc2c1 [Compound I-63, 2-[(1R,4S,6R)-6-[5-cyclopropyl-3-(2,6-dichlorophenyl)-1,2-oxazole-4-carbonyloxy]-2-azabicyclo[2.2.1]heptan-2-yl]-4-fluoro-1,3-benzothiazole-6-carboxylic Acid] |  | 13 |  | < 31600 | 8.7 | 
12 | O=C(O)c1cc(F)c2nc(N3C[C@@H]4C[C@H](OC(=O)c5c(-c6c(Cl)cccc6Cl)noc5C5CC5)[C@H]3C4)sc2c1 [Compound I-64, 2-[(1R,4S,6S)-6-[5-cyclopropyl-3-(2,6-dichlorophenyl)-1,2-oxazole-4-carbonyloxy]-2-azabicyclo[2.2.1]heptan-2-yl]-4-fluoro-1,3-benzothiazole-6-carboxylic Acid] |  |  | 55 | 501 | >4.5 | 
13 | O=C(O)c1cc(F)c2nc(N3C[C@H]4C[C@@H]3[C@H](OCc3c(-c5c(Cl)cccc5Cl)noc3C3CC3)C4)sc2c1 [Compound I-65, 2-[(1R,4S,6R)-6-{[5-cyclopropyl-3-(2,6-dichlorophenyl)-1,2-oxazol-4-yl]methoxy}-2-azabicyclo[2.2.1]heptan-2-yl]-4-fluoro-1,3-benzothiazole-6-carboxylic Acid] |  |  | 52 | 100 | 6.9 | 45
14 | N#Cc1cc(N2C[C@@H]3C[C@H]2C[C@H]3OCc2c(-c3c(Cl)cccc3Cl)noc2C2CC2)ccc1C(=O)O [Compound I-101, 2-Cyano-4-[(1S,4S,5R)-5-{[5-cyclopropyl-3-(2,6-dichlorophenyl)-1,2-oxazol-4-yl]methoxy}-2-azabicyclo[2.2.1]heptan-2-yl]benzoic Acid] |  | 137 | 113 | 1 | 9.8 | 
15 | N#Cc1cc(C(=O)O)ccc1N1C[C@@H]2C[C@H]1C[C@H]2OCc1c(-c2c(Cl)cccc2Cl)noc1C1CC1 [Compound I-102, 3-cyano-4-[(1S,4S,5R)-5-{[5-cyclopropyl-3-(2,6-dichlorophenyl)-1,2-oxazol-4-yl]methoxy}-2-azabicyclo[2.2.1]heptan-2-yl]benzoic Acid] |  | 112 | 106 | 0.794 | 8.6 | 
16 | O=C(O)c1ccc(N2C[C@@H]3C[C@H]2C[C@H]3OCc2c(-c3c(Cl)cccc3Cl)noc2C2CC2)cc1F [Compound I-103, 4-[(1S,4S,5R)-5-{[5-cyclopropyl-3-(2,6-dichlorophenyl)-1,2-oxazol-4-yl]methoxy}-2-azabicyclo[2.2.1]heptan-2-yl]-2-fluorobenzoic Acid] |  | 135 | 103 | 0.794 | 8.7 | 
17 | O=C(O)c1c(F)cc(N2C[C@@H]3C[C@H]2C[C@H]3OCc2c(-c3c(Cl)cccc3Cl)noc2C2CC2)cc1F [Compound I-104, 4-[(1S,4S,5R)-5-{[5-cyclopropyl-3-(2,6-dichlorophenyl)-1,2-oxazol-4-yl]methoxy}-2-azabicyclo[2.2.1]heptan-2-yl]-2,6-difluorobenzoic Acid] |  | 156 | 104 | 3.16 | 9.4 | 
18 | O=C(O)c1cc(F)c(N2C[C@@H]3C[C@H]2C[C@H]3OCc2c(-c3c(Cl)cccc3Cl)noc2C2CC2)cc1F [Compound I-105, 4-[(1S,4S,5R)-5-{[5-cyclopropyl-3-(2,6-dichlorophenyl)-1,2-oxazol-4-yl]methoxy}-2-azabicyclo[2.2.1]heptan-2-yl]-2,5-difluorobenzoic Acid] |  | 142 | 112 | 1.26 | 9.4 | 
19 | O=C(O)c1ccc(N2C[C@@H]3C[C@H]2C[C@H]3OCc2c(-c3c(Cl)cccc3Cl)noc2C2CC2)c(C(F)(F)F)c1 [Compound I-106, 4-((1S,4S,5R)-5-((5-cyclopropyl-3-(2,6-dichlorophenyl)isoxazol-4-yl)methoxy)-2-azabicyclo[2.2.1]heptan-2-yl)-3-(trifluoromethyl)benzoic acid] |  | 126 | 106 | 0.631 | 8.6 | 
20 | Cc1cc(C(=O)O)ccc1N1C[C@@H]2C[C@H]1C[C@H]2OCc1c(-c2c(Cl)cccc2Cl)noc1C1CC1 [Compound I-107, 4-((1S,4S,5R)-5-((5-cyclopropyl-3-(2,6-dichlorophenyl)isoxazol-4-yl)methoxy)-2-azabicyclo[2.2.1]heptan-2-yl)-3-methylbenzoic acid] |  | 122 | 102 | 1 | 8.6 | 
21 | O=C(O)c1ccc(N2C[C@@H]3C[C@H]2C[C@H]3OCc2c(-c3c(Cl)cccc3Cl)noc2C2CC2)c(C2CC2)c1 [Compound I-108, 3-cyclopropyl-4-((1S,4S,5R)-5-((5-cyclopropyl-3-(2,6-dichlorophenyl)isoxazol-4-yl)methoxy)-2-azabicyclo[2.2.1]heptan-2-yl)benzoic acid] |  | 117 | 101 | 3.98 | 9.1 | 
